Here are results for one compound from US20260165949A1, “COMPOSITION CONTAINING N-NONYLDEOXYNOJIRIMYCIN FOR SUPPRESSION, ALLEVIATION, PALLIATION, OR TREATMENT OF SKIN ITCHING” (CHA UNIVERSITY INDUSTRY-ACADEMIC COOPERATION FOUNDATION, priority 2022, published 2026).

Assay [1] has as its system CCL22 release in HaCaT cells. As to the kind of experiment: CCL22 release induced by TNF-α/IFN-γ stimulation in HaCaT cells (ELISA). In kind it is cell-based. As to conditions: various concentrations; TNF-α and IFN-γ 10 ng/ml each, 24 hours; FIG. 6. How it is done:
(§1) Epidermal cells (HaCaT cells) were purchased from Thermo Fisher Scientific (USA). HaCaT cells were cultured in a DMEM medium (Dulbecco's Modified Eagle's medium (high glucose), Hyclone, USA) containing 10% fetal bovine serum (FBS) and 1% penicillin/streptomycin at 37° C. in a 5% CO2 incubator.
(§2) In order to evaluate the inhibitory effects against IL-6, CCL17, and CCL22 release induced by TNF-α and IFN-γ stimulation in HaCaT cells, an epidermal cell model for the itching associated with the skin barrier, we used a IL-6 ELISA kit (Abcam, UK), a CCL17 ELISA kit (R&D Systems, USA), and a CCL22 ELISA kit (R&D Systems, USA). HaCaT cells were seeded at 1×10^6 cells/well in each well of a coated 6-well plate for cell culture and cultured in a DMEM medium containing 10% FBS and 1% antibiotics (penicillin/streptomycin). After 24 hours, the existing medium was removed. The cells were washed with PBS and a DMEM medium without FBS was added thereto. After N-nonyldeoxynojirimycin was treated at various concentrations, the cells were cultured for 1 hour at 37° C. in a 5% CO2 incubator. The cells were treated with TNF-α and IFN-γ at 10 ng/ml each and then incubated for an additional 24 hours. The cell culture mixture was collected in a 1.5 ml tube and then centrifuged at 2,000 rcf. […] After completion of the reaction, the absorbance was measured at 450 nm using a microplate reader. […]
A general note: ELISA stands for enzyme-linked immunosorbent assay.

A further assay relates to hepatic glycogenolysis. As to conditions: in vivo; cited from earlier work.
Assay [2] has as its system PGE2 release in RBL-2H3 cells. As to the kind of experiment: PGE2 release induced by PMA/A23187 stimulation in RBL-2H3 cells (ELISA). In kind it is cell-based. As to conditions: 1 to 40 μM; 50 nM PMA and 1 μM A23187 for 30 minutes; FIG. 3. As to the method: (§3) Mast cells (RBL-2H3 cells) were purchased from ATCC (American Type Culture Collection, USA). RBL-2H3 cells were cultured in a DMEM medium (Dulbecco's Modified Eagle's medium (high glucose), Hyclone, USA) containing 10% fetal bovine serum (FBS) and 1% penicillin/streptomycin at 37° C. in a 5% CO2 incubator.
In order to evaluate the inhibitory effects against […] (PGE2) release of RBL-2H3 cells according to the treatment of N-nonyldeoxynojirimycin, an enzyme-linked immunosorbent assay (ELISA) was performed using a PGE2 ELISA kit (R&D Systems, USA). Specifically, the cultured RBL-2H3 cells were seeded at 1×10^6 cells/well in each well of a 6-well plate for cell culture and cultured in the same manner as in Example 2. After 24 hours, the existing medium was removed. The cells were washed with PBS and a DMEM medium without FBS was added thereto. After N-nonyldeoxynojirimycin was treated at various concentrations (1 to 40 μM), the cells were cultured for 1 hour at 37° C. in a 5% CO2 incubator. The cells were treated with 50 nM of PMA and 1 μM of A23187 and incubated for an additional 30 minutes. The cell culture mixture was collected in a 1.5 ml tube and then centrifuged at 2,000 rcf. The supernatant thereof was subject to the ELISA analysis using a PGE2 ELISA kit (R&D Systems, USA). After completion of the reaction, the absorbance was measured at 450 nm using a microplate reader.

The test system of assay [3] is CCL17 release in HaCaT cells. As to the kind of experiment: CCL17 release induced by TNF-α/IFN-γ stimulation in HaCaT cells (ELISA). As to conditions: various concentrations; TNF-α and IFN-γ 10 ng/ml each, 24 hours; FIG. 5. In kind it is cell-based. How it is done: as §1, §2
Assay [4] deals with IL-6 release in HaCaT cells. As to the kind of experiment: IL-6 release induced by TNF-α/IFN-γ stimulation in HaCaT cells (ELISA). The format is cell-based. As to conditions: various concentrations; TNF-α and IFN-γ 10 ng/ml each, 24 hours; FIG. 4. As to the method: as §1, §2
The next assay concerns RBL-2H3 cells. As to the kind of experiment: β-hexosaminidase release induced by PMA/A23187 stimulation (degranulation) in RBL-2H3 cells. In kind it is cell-based. How it is done: as §3
In order to evaluate the inhibitory effects against degranulation of RBL-2H3 cells, β-hexosaminidase release was measured for various compounds. Specifically, the cultured RBL-2H3 cells were seeded at 2×10^5 cells/well in each well of a 24-well plate for cell culture and cultured in a DMEM medium containing 10% FBS and 1% penicillin/streptomycin. After 24 hours, the existing medium was removed. The cells were washed twice with an extracellular buffer (5 mM KCl, 119 mM NaCl, 25 mM PIPES, 0.4 mM MgCl2, 1 mM CaCl2), 40 mM NaOH, 5.6 mM glucose, 0.1% BSA, pH 7.2) and the medium was replaced with the extracellular buffer. […] After the reaction was terminated by adding a stop solution (0.1 M carbonate buffer, pH 10), the absorbance was measured at 405 nm using a microplate reader.
The β-hexosaminidase release was measured in the same manner as in Example 2, except that N-nonyldeoxynojirimycin was treated at various concentrations (1 to 200 μM).

The test system of another assay is glucosidase. As to conditions: cited from earlier work.

As for `CCCCCCCCCN1C[C@H](O)[C@@H](O)[C@H](O)[C@H]1CO` [N-nonyldeoxynojirimycin], in assay [1], the “inhibitory effect against CCL22 release” value is “inhibited the IL-6, CCL17, and CCL22 releases”. The “inhibition of hepatic glycogenolysis” value with hepatic glycogenolysis is listed as “known to inhibit hepatic glycogenolysis in vivo”. Also, the “inhibitory effect against PGE2 release” value in assay [2] is listed as “inhibited the PGE2 release in a concentration-dependent manner”. Further, in assay [3], the “inhibitory effect against CCL17 release” value is “inhibited the IL-6, CCL17, and CCL22 releases”. The “inhibitory effect against IL-6 release” value in assay [4] is “inhibited the IL-6, CCL17, and CCL22 releases”. Moreover, the “inhibitory effect against β-hexosaminidase release according to treatment concentration” value in the assay on RBL-2H3 cells (1 to 200 μM, PMA/A23187 stimulation, FIG. 2) is given as “inhibits the β-hexosaminidase release in a concentration-dependent manner”. Also, the “inhibitory effect against β-hexosaminidase release” value in the assay with RBL-2H3 cells (test material 20 μM, 1 hour, then 50 nM PMA and 1 μM A23187 for 30 minutes, FIG. 1) is “remarkably inhibited the β-hexosaminidase release compared to other alkaloid analogues”. The glucosidase inhibitory activity result in the assay on glucosidase is listed as “has a glucosidase inhibitory activity”.
